Laboratory results published in US20230330020A1, “MEDICATION THAT PROTECTS THE INTESTINAL MICROBIOTA AND THEIR PREPARATION METHODS AND APPLICATIONS” (priority 2020, published 2023).

Legend:
[1] = test system: ampicillin resistance gene ampC; test: Real-time quantitative PCR of resistance gene ampC and total bacterial 16S rRNA in fecal DNA; type: in vivo, mice; settings: oral 20 mg kg^-1 once a day 5 days; feces; vs control
Experimental: We orally administered PGNPs-encapsulated ampicillin and free ampicillin to 6-8 weeks old mice for 5 consecutive days, once a day, while the control group was not given any ampicillin treatment. At specific time points during and after the antibiotic treatment period, we collected fecal samples from the mice, extracted DNA, determined DNA concentration, diluted to 10 ng μL^−1, and analyzed the copy number of the ampicillin resistance gene ampC using real-time fluorescence quantitative PCR.
Mice were divided into four groups, with 6 mice in each group. The control group was not treated with antibiotics, while the experimental group was given free antibiotics or antibiotics encapsulated in PGNPs prepared as described above. The experimental group mice were orally administered ampicillin (20 mg kg^−1) and PGNPs- encapsulated ampicillin once a day for 5 consecutive days. At specific time points, mouse feces were collected, and total DNA was extracted from fecal samples, and the concentration was measured. Real-time quantitative PCR was used to amplify the ampicillin resistance gene ampC and the total bacterial 16S rRNA in fecal DNA, and the copy numbers of the two genes were calculated to determine the effect of the two different antibiotic treatments on the abundance of antibiotic-resistant bacteria in the gut.

Streptococcus pneumoniae = test: Mouse pneumonia induced by intranasal Streptococcus pneumoniae, oral treatment; type: in vivo, mice
Experimental: In one implementation, the effectiveness of orally administered ampicillin wrapped in PGNPs for treating mouse pneumonia was validated. Firstly, we induced mouse pneumonia by intranasally administering Streptococcus pneumoniae. At 2 and 8 hours post-induction, the mice received either ampicillin encapsulated in PGNPs or free ampicillin treatment. At 24 hours post-infection, the number of Streptococcus pneumoniae in the mouse lungs and the proportion of neutrophil infiltration were analyzed.
Mice were divided into four groups, with two control groups receiving no ampicillin treatment and two treatment groups receiving ampicillin treatment after infection, with at least 3 mice per group. Mouse pneumonia was induced by intranasal inoculation of 3×10^8 CFUs of Streptococcus pneumoniae. After infection, mice were orally treated with either free ampicillin or PGNPs encapsulated with ampicillin (40 mg kg^−1) at 2 hours and 8 hours post-infection. After 24 hours of infection, the number of Streptococcus pneumoniae in the lungs was measured. Mouse lung tissues were collected and homogenized in sterile PBS, diluted 10-fold in PBS, and plated for colony counting. The proportion of neutrophil infiltration in the lungs of the mice was determined by staining the lung tissues with antibodies and analyzing with a flow cytometer.

[2] = Loading rate (encapsulation efficiency) of antibiotics in PGNPs by double emulsion, single emulsion and dialysis; type: physicochemical; settings: hydrophobic antibiotics; Gluc-PEG-PLGA + cationic lipid
Text: In one implementation, we used a double-emulsification method to encapsulate hydrophilic antibiotics such as ampicillin and erythromycin, and measured an encapsulation efficiency of 50%-60%. Using a dialysis method, we encapsulated hydrophobic antibiotics such as metronidazole and achieved an encapsulation efficiency of 25%. Encapsulation of hydrophobic antibiotics such as metronidazole using a single-emulsification method yielded an encapsulation efficiency of 20%-40%. Various types of antibiotics with different properties can be encapsulated in nanoparticles using methods such as single-emulsification, double-emulsification, and dialysis, as shown in FIG. 3. The double-emulsification method yielded the highest encapsulation efficiency for hydrophilic antibiotics.
For hydrophilic antibiotics, such as ampicillin and vancomycin, the double emulsion method was used for loading. A water-soluble solution (100 mg mL^−1, 30 μL) of either ampicillin or vancomycin was added to 0.5 mL of dichloromethane containing 0.5 mg DOTAP and 5 mg glucose-PEG-PLGA. […] The concentration of the loaded antibiotics in the nanoparticles was measured using a UV spectrophotometer or HPLC. The loading rate was calculated by dividing the mass of loaded antibiotics by the total mass of antibiotics used for loading. […]

[3] = 40 mg kg^-1 oral at 2 h and 8 h post-infection, 24 h, vs untreated group

Row | encapsulation efficiency, dialysis method [2] | SMILES | copy number of gut bacterial resistance gene ampC [1] | neutrophil proportion in the lungs (Streptococcus pneumoniae; [3]) | number of lung Streptococcus pneumoniae (Streptococcus pneumoniae; [3]) | therapeutic effect on mouse pneumonia (Streptococcus pneumoniae; oral at 2 and 8 hours post-induction, analysed at 24 hours)
1 | – | CC1(C)S[C@@H]2[C@H](NC(=O)[C@H](N)c3ccccc3)C(=O)N2[C@H]1C(=O)O [Free-Amp, ampicillin] | increased sharply over time | significant decrease | significant decrease | good therapeutic effects
2 | 25% | Cc1ncc([N+](=O)[O-])n1CCO [metronidazole] | – | – | – | –
